Test results: PMC9161374 (Science Translational Medicine, 2022)
Converted amounts (≈) assume the structure as drawn. “And” between values parts separate entries of the source, which are not always exact repeats. Equal values may be shown once. Read-outs that look alike come from different tables or passages of the source.

Assays:
[1] = tested on: SARS-CoV-2 (Omicron, B.1.1.529); settings: Omicon, Vero E6, replicates
[2] = macaques, NCATS of NIH ref 47; cited from earlier work
[3] = tested on: SARS-CoV-2 (Omicron, B.1.1.529); assay: microbe, parasite or virus in culture; settings: for EC50: Severe acute respiratory syndrome coronavirus 2, Vero C1008, 48 h, read-out: EC50 in Vero E6 cells, SARS-CoV-2 (Omicron, B.1.1.529); for EC90: Severe acute respiratory syndrome coronavirus 2, Vero C1008, read-out: EC90 (Confidence 95%)
[4] = pKa determination (fast-UV, Sirius T3); format: physicochemical; settings: methanol cosolvent titration (Sirius T3 Titrator); read-out: pKa Value (Basic)
Description: The pK a value of test compounds were detected by using a fast-UV method with Sirius T3 Titrator. First, the blank calibration and Fast UV buffer calibration were performed where an empty sample vial was placed in the sample position. The buffer was fully titrated, and reference spectra were collected at all pHs. The sample was then detected with the following process: Methanol was used as a cosolvent to measure the psKa (cosolvent dissociation constant). Five μL of the compound stock solution of 10 mM was added to a sample vial. Three weight/volume ratios of methanol cosolvent were tested and the total starting volume for titration was set to 1.5 mL. A spectrometer detected the turbidity, and the pH range of titration by a fast UV method was 2 to 12. The titration data was obtained from a proper titration and the psKa test result was obtained by Yasuda-Shedlovsky extrapolation method for fast UV psKa method.

[5] = Thermodynamic solubility in water; format: physicochemical; settings: ultrapure water, 25°C
Description: Test compounds were weighed out for measuring the solubility (about 1.5 mg each in three separate 1.5 mL glass vials). For each compound, one vial was used to do the standard and the other two were used to measure the solubility in duplicate. The proper volume of ultrapure water was added to each vial of the solubility sample plate using pipettes. One stir stick was added to each vial and the vials were sealed using a molded polytetrafluoroethylene (PTFE)/silicone plug. […] Then the stir sticks were removed using a magnet, and the samples were transferred from the solubility sample plate into a filter plate with pipettes. All compounds were filtered under a vacuum condition. The filtrate was diluted 1000-fold with a mixture of H2O and acetonitrile (1:1 in v/v). The plates were vortexed for 5 min. For standards (STD), the necessary volume was calculated to dissolve each standard sample to the concentration of 1.5 mg/mL. DMSO was added to each standard sample. The standard vials were covered. The standard plate was placed on the Eppendorf Thermomixer Comfort plate shaker for 5 min at 25°C and 1100 rpm. After 5 min, each compound was completely dissolved. […]

[6] = LogP determination (1-octanol/PBS pH 7.4); format: physicochemical; settings: 1-octanol/PBS pH 7.4, pH 7.4
Description: The stock solutions of test compounds were prepared in DMSO to 10 mM or 30 mM. The 5 μL of stock solution (30 mM) or 15 μL of stock solution (10 mM) of each sample was placed into their proper 96-well rack. […] The assay was performed in duplicate. One stir stick was added to each vial and sealed with a molded PTFE/Silicone plug. […] After incubation, the stir sticks were removed by a magnet. To separate the phases, the samples were transferred and centrifuged at 25°C at 20,000 g for 20 min. The upper (1-octanol) and lower (buffer) phases were separated and transferred to the empty tubes. Aliquots of 5 μL were taken from the upper phase, followed by 495 μL of methanol. After 1 min of a vortex, aliquots of 50 μL were taken from the diluent, followed by 450 μL of methanol. Aliquots of 50 μL were taken from the lower phase, followed by 450 μL of methanol. The samples were evaluated by LC-MS/MS analysis, and all calculations were carried out using Microsoft Excel.

[7] = tested on: SARS-CoV-2 (strain B.1); design: species or system KI-hACE2 mice; settings: mouse, in vivo
[8] = tested on: SARS-CoV-2 (strain B.1); assay: SARS-CoV-2 infection in Ad5-hACE2 mice; format: in vivo, Ad5-hACE2 BALB/c mice
[9] = Severe acute respiratory syndrome coronavirus 2, Vero C1008, Omicon, Vero E6, replicates

| SMILES | % Inhibition ([1]; 0.208 uM) | % Inhibition ([1]; 0.625 uM) | % Inhibition ([1]; 2.5 uM) | % Inhibition ([1]; 5 uM) | % Inhibition ([1]; 10 uM) | EC50 [3] [nM] | inhibition at 0.625 µM [3, 9] [%] | inhibition at 2.5 µM [3, 9] [%] | inhibition at 5 µM [3, 9] [%] | inhibition at 10 µM [3, 9] [%] | EC90 [3] [nM] | other results |
| --- | --- | --- | --- | --- | --- | --- | --- | --- | --- | --- | --- | --- |
| N#C[C@@]1(c2ccc3c(N)ncnn23)O[C@H](CO)[C@@H](O)[C@H]1O [GS-441524, reference compound] | 55.9865% and 27.3736% and 80.8013% | 98.5871% and 97.6862% | 99.9728% and 99.9712% | 99.9879% and 99.9871% | 99.9637% and 99.9769% | 190 | 96.5 | 100 | 100 | 100 | 363 | oral bioavailability [2]: 8.3%; inhibition at 0.069 µM ([3]; Severe acute respiratory syndrome coronavirus 2, Vero C1008, Omicon, 0.069 uM, Vero E6, replicates): 0% |
| CC(C)C(=O)OC[C@H]1O[C@@](C#N)(c2ccc3c(N)ncnn23)[C@H](O)[C@@H]1O [ATV006] | 71.5175% and 88.4612% | 99.4508% and 99.8921% | 99.9835% and 99.9391% | 99.9795% and 99.9931% | 99.9442% | 106 | 99.7 | 99.9 | 100 | 100 | 269 | pKa [4]: 3.66; solubility at 24 h [5]: 686 µg/mL (≈ 1900 µM); logP at 1 h [6]: 0.86; SARS-CoV-2 gRNA and sgRNA in lung [7]: hardly detectable; Lung viral titer, Log10 (FFU/g) ([8]; 250mg/kg orally once daily, 2 dpi, FFA, individual mice): 3.924 Log10 (FFU/g) and 2.623 Log10 (FFU/g) and 3.577 Log10 (FFU/g) and 3.827 Log10 (FFU/g); viral load and pathological damage of the lung ([8]; ATV006 250 mg/kg, EIDD-2801 500 mg/kg, orally once daily): reduce the viral load and pathological damage of the lung; % Inhibition ([1]; 0.069 uM): 43.9482% and 49.6397%; inhibition at 0.008 µM ([3]; Severe acute respiratory syndrome coronavirus 2, Vero C1008, Omicon, 0.008 uM, Vero E6, replicates): 0%; inhibition at 0.208 µM ([3]; Severe acute respiratory syndrome coronavirus 2, Vero C1008, Omicon, 0.208 uM, Vero E6, replicates): 81.1% |
